Measurements: patent US6592885B2, “Method for making infection-resistant fabricated textile articles for biomedical applications” (priority 2001, dated 2003)

Experiments:
[1] = test system: S. aureus; assay: MIC/MBC of native and heated Cipro/Oflox (heat stability); format: cell-based; conditions: Staphylococcus aureus, n=6; for MBC: broth backplated on agar; for MIC: 10^6 S. aureus/ml, TSB
Experimental: An inoculum of S. aureus was diluted to obtain a bacterial concentration of 10^6 S. aureus/ml. […] V. Mosby, St. Louis, 1986]. Antibiotic concentrations in the assay were […].

[2] = Structural stability to heating conditions, dye bath analysis via HPLC; format: physicochemical; conditions: heating conditions utilized in pad/heat dyeing; data not shown
[3] = antibiotic heated to 135° C. for 1 hour (dye bath conditions), 24 hours

MIC [1, 3] [µM] | MIC ([1]; native antibiotic, turbidity after 24 hours) [µM] | structural stability upon dye bath analysis via HPLC [2] | SMILES | MBC [1, 3] [µM] | MBC ([1]; native antibiotic, 24 hours) [µM]
– | – | – | O=C(O)c1cn(C2CC2)c2cc(N3CCNCC3)c(F)cc2c1=O [Cipro, Ciprofloxacin] | 6.5 | 6.5
0.78 | 0.78 | no structural degradation | CC1COc2c(N3CCN(C)CC3)c(F)cc3c(=O)c(C(=O)O)cn1c23 (stereo not shown) [Oflox, Ofloxacin] | 9.5 | 9.5
